pIC50: −log10 of the molar value.
Molecular target: T1, Solute carrier family 22 member 1 (Homo sapiens, UniProt O15245)
T1 sequence (O15245 whole entry): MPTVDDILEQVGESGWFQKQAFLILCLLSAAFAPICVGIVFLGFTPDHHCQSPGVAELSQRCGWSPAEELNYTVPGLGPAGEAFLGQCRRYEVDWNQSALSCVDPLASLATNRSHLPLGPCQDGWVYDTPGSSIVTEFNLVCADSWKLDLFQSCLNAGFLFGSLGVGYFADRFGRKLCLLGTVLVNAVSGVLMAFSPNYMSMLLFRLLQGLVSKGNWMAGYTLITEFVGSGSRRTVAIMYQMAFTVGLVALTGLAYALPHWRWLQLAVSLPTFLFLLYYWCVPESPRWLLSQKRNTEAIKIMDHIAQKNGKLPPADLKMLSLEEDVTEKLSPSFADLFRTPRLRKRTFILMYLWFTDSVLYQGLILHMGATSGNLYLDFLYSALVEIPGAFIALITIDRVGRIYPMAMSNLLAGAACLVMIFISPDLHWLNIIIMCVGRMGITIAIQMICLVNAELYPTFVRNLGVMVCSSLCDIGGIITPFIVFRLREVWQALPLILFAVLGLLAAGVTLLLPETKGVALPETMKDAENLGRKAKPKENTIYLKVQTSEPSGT
Test: TP_TRANSPORTER: inhibition of TEA uptake in OCT1-expressing HeLa cells

## CN(C)CCCN1c2ccccc2Sc2ccc(Cl)cc21 [CHLORPROMAZINE]
  pIC50: 5.37

From ChEMBL document CHEMBL2074231, “Influence of molecular structure on substrate binding to the human organic cation transporter, hOCT1” (Mol Pharmacol, 2003)
